According to ChEMBL document CHEMBL5505958, “Optimization of sequence and chiral content enhances therapeutic potential of tilapia piscidin peptides” (Eur J Med Chem, 2024):
The source made the active and inactive calls.

Assays:
Klebsiella pneumoniae [1] = test: Antibacterial activity against Klebsiella pneumoniae BAA 2473 assessed as inhibition of bacterial growth in presence of 0.1 microg/ml of pepsin (reference value: 1.56 to 3.13 microM); assay type: functional
Escherichia coli [2] = test: Bactericidal activity against Escherichia coli 10675 assessed as inhibition of bacterial growth incubated for 16 to 20 hrs; assay type: functional; conditions: time 16-20 hrs
Klebsiella pneumoniae [3] = test: Antibacterial activity against Klebsiella pneumoniae BAA 2473 assessed as inhibition of bacterial growth in presence of 1 microg/ml of pepsin (reference value: 1.56 to 3.13 microM); assay type: functional
Klebsiella pneumoniae [4] = test: Bactericidal activity against Klebsiella pneumoniae BAA 2473 assessed as inhibition of bacterial growth in presence of 1 microg/ml of chymotrypsin (reference value: 1.56 to 3.13 microM); assay type: functional
Rhizopus arrhizus [5] = test: Antifungal activity against Rhizopus oryzae 34550 assessed as inhibition of fungal growth incubated for 16 to 20 hrs; assay type: functional; conditions: time 16-20 hrs
Salmonella typhimurium [6] = test: Bactericidal activity against Salmonella typhimurium DT104 assessed as inhibition of bacterial growth incubated for 16 to 20 hrs in presence of human serum; assay type: functional, Salmonella enterica subsp. enterica serovar Typhimurium; conditions: Salmonella enterica, time 16-20 hrs
Rhizopus arrhizus [7] = test: Fungicidal activity against Rhizopus oryzae 34550 assessed as inhibition of fungal growth incubated for 16 to 20 hrs in presence of human serum; assay type: functional; conditions: time 16-20 hrs
Klebsiella pneumoniae [8] = test: Antibacterial activity against Klebsiella pneumoniae BAA 2473 assessed as inhibition of bacterial growth in presence of 10 microg/ml of proteinase K (reference value: 1.56 to 3.13 microM); assay type: functional
Acinetobacter baumannii = test: Bactericidal activity against Acinetobacter baumannii 10591 assessed as inhibition of bacterial growth incubated for 16 to 20 hrs; assay type: functional; conditions: time 16-20 hrs
Salmonella typhimurium [9] = test: Antibacterial activity against Salmonella typhimurium DT104 assessed as inhibition of bacterial growth incubated for 16 to 20 hrs; assay type: functional, Salmonella enterica subsp. enterica serovar Typhimurium; conditions: Salmonella enterica, time 16-20 hrs
Klebsiella pneumoniae [10] = test: Antibacterial activity against Klebsiella pneumoniae BAA 2473 assessed as inhibition of bacterial growth in presence of 1 microg/ml of proteinase K (reference value: 1.56 to 3.13 microM); assay type: functional
Klebsiella pneumoniae [11] = test: Antibacterial activity against Klebsiella pneumoniae TL 297 assessed as inhibition of bacterial growth incubated for 16 to 20 hrs in presence of human serum; assay type: functional; conditions: time 16-20 hrs
Klebsiella pneumoniae [12] = test: Induction of morphological changes in Klebsiella pneumoniae BAA 2473 assessed as membrane deformations with protruding granules at by transmission electron microscopy analysis; assay type: functional, organism-based
Enterococcus faecalis = test: Antibacterial activity against Enterococcus faecalis 10066 assessed as inhibition of bacterial growth incubated for 16 to 20 hrs; assay type: functional; conditions: time 16-20 hrs
Klebsiella pneumoniae [13] = test: Bactericidal activity against Klebsiella pneumoniae BAA 2473 assessed as inhibition of bacterial growth in presence of 1 microg/ml of proteinase K (reference value: 1.56 to 3.13 microM); assay type: functional
Klebsiella pneumoniae [14] = test: Antibacterial activity against Klebsiella pneumoniae BAA 2473 assessed as inhibition of bacterial growth in presence of 0.1 microg/ml of trypsin (reference value: 1.56 to 3.13 microM); assay type: functional
Enterococcus faecium [15] = test: Bactericidal activity against Enterococcus faecium 10067 assessed as inhibition of bacterial growth incubated for 16 to 20 hrs in presence of human serum; assay type: functional; conditions: time 16-20 hrs
Klebsiella aerogenes = test: Antibacterial activity against Enterobacter aerogenes 15630 assessed as inhibition of bacterial growth incubated for 16 to 20 hrs; assay type: functional; conditions: time 16-20 hrs
Staphylococcus aureus [16] = test: Bactericidal activity against Staphylococcus aureus 10780 assessed as inhibition of bacterial growth incubated for 16 to 20 hrs in presence of human serum; assay type: functional; conditions: time 16-20 hrs
[17] = system: Staphylococcus haemolyticus; test: Bactericidal activity against Staphylococcus haemolyticus 15237 assessed as inhibition of bacterial growth incubated for 16 to 20 hrs; assay type: functional; conditions: time 16-20 hrs
Lipopolysaccharide (LPS) = test: Displacement of BODIPY-TR-cadaverine from Klebsiella pneumoniae BAA 2473 lipopolysaccharide (LPS) assessed as increase in fluorescence intensity at 3.125 uM by fluorescence spectrophotometric analysis; assay type: subcellular
Klebsiella pneumoniae [18] = test: Antibacterial activity against Klebsiella pneumoniae BAA 2473 assessed as inhibition of bacterial growth in presence of 1 microg/ml of trypsin (reference value: 1.56 to 3.13 microM); assay type: functional
Pseudomonas aeruginosa = test: Antibacterial activity against Pseudomonas aeruginosa 19660 assessed as inhibition of bacterial growth incubated for 16 to 20 hrs in presence of human serum; assay type: functional; conditions: time 16-20 hrs
Klebsiella pneumoniae [19] = test: Antibacterial activity against Klebsiella pneumoniae BAA 2473 assessed as inhibition of bacterial growth incubated for 16 to 20 hrs; assay type: functional; conditions: time 16-20 hrs
Salmonella enterica [20] = test: Antibacterial activity against Salmonella enterica 15455 assessed as inhibition of bacterial growth incubated for 16 to 20 hrs in presence of human serum; assay type: functional; conditions: time 16-20 hrs
Klebsiella pneumoniae [21] = test: Antibacterial activity against Klebsiella pneumoniae BAA 2473 assessed as inhibition of bacterial growth in presence of 10 microg/ml of trypsin (reference value: 1.56 to 3.13 microM); assay type: functional
Salmonella typhimurium [22] = test: Antibacterial activity against Salmonella typhimurium DT104 assessed as inhibition of bacterial growth incubated for 16 to 20 hrs in presence of human serum; assay type: functional, Salmonella enterica subsp. enterica serovar Typhimurium; conditions: Salmonella enterica, time 16-20 hrs
Salmonella enterica [23] = test: Antibacterial activity against Salmonella enterica 15455 assessed as inhibition of bacterial growth incubated for 16 to 20 hrs; assay type: functional; conditions: time 16-20 hrs
Klebsiella pneumoniae [24] = test: Bactericidal activity against Klebsiella pneumoniae 10692 assessed as inhibition of bacterial growth incubated for 16 to 20 hrs; assay type: functional; conditions: time 16-20 hrs
Escherichia coli [25] = test: Bactericidal activity against Escherichia coli 10675 assessed as inhibition of bacterial growth incubated for 16 to 20 hrs in presence of human serum; assay type: functional; conditions: time 16-20 hrs
Cell membrane [26] = test: Induction of cell membrane depolarization in Klebsiella pneumoniae BAA 2473 assessed as increase in fluorescence intensity at 1 times MIC incubated for 40 mins by DiBAC4(3) fluorescent dye based assay; assay type: cell membranes
Cell membrane [27] = test: Induction of outer cell membrane permeabilization in Klebsiella pneumoniae BAA 2473 assessed as increase in fluorescence intensity by NPN uptake assay; assay type: cell membranes
Klebsiella pneumoniae [28] = test: Bactericidal activity against Klebsiella pneumoniae BAA 2473 assessed as inhibition of bacterial growth in presence of 0.1 microg/ml of chymotrypsin (reference value: 1.56 to 3.13 microM); assay type: functional
Klebsiella oxytoca [29] = test: Bactericidal activity against Klebsiella oxytoca 13985 assessed as inhibition of bacterial growth incubated for 16 to 20 hrs in presence of human serum; assay type: functional; conditions: time 16-20 hrs
Staphylococcus aureus [30] = test: Antibacterial activity against Staphylococcus aureus 10780 assessed as inhibition of bacterial growth incubated for 16 to 20 hrs in presence of human serum; assay type: functional; conditions: time 16-20 hrs
Klebsiella pneumoniae [31] = test: Bactericidal activity against Klebsiella pneumoniae BAA 2473 assessed as inhibition of bacterial growth in presence of 10 microg/ml of pepsin (reference value: 1.56 to 3.13 microM); assay type: functional
Klebsiella oxytoca [32] = test: Antibacterial activity against Klebsiella oxytoca 13985 assessed as inhibition of bacterial growth incubated for 16 to 20 hrs in presence of human serum; assay type: functional; conditions: time 16-20 hrs
Klebsiella pneumoniae [33] = test: Bactericidal activity against Klebsiella pneumoniae BAA 2473 assessed as inhibition of bacterial growth in presence of 1 microg/ml of pepsin (reference value: 1.56 to 3.13 microM); assay type: functional
Enterococcus faecium [34] = test: Bactericidal activity against Enterococcus faecium 10067 assessed as inhibition of bacterial growth incubated for 16 to 20 hrs; assay type: functional; conditions: time 16-20 hrs

CC(C)C[C@H](NC(=O)[C@H](CCCCN)NC(=O)[C@@H](CCCCN)NC(=O)[C@H](CC(C)C)NC(=O)[C@@H](N)Cc1ccccc1)C(=O)N[C@H](CC(C)C)C(=O)N[C@@H](CCCCN)C(=O)N[C@@H](C)C(=O)N[C@H](CC(C)C)C(=O)N[C@@H](Cc1ccccc1)C(=O)N[C@@H](CO)C(=O)N[C@H](C)C(=O)N1CCC[C@H]1C(=O)N[C@@H](CCCCN)C(=O)N[C@H](C)C(=O)N[C@@H](CC(C)C)C(=O)N[C@@H](CCCCN)C(=O)N[C@H](CCCNC(=N)N)C(=O)N[C@@H](CC(C)C)C(=O)N[C@@H](CC(C)C)C(=O)N[C@H](CCCNC(=N)N)C(=O)N[C@@H](CCCNC(=N)N)C(=O)N[C@@H](CCCNC(=N)N)C(=O)N[C@H](CCCNC(=N)N)C(=O)N[C@@H](CCCNC(=N)N)C(=O)O
0.78 µM: MIC (Klebsiella pneumoniae [1]) | MIC (Klebsiella pneumoniae [3]) | MBC (Klebsiella pneumoniae [4]) | MIC (Rhizopus arrhizus [5]) | MIC (Klebsiella pneumoniae [8]) | MIC (Klebsiella pneumoniae [10]) | MIC (Klebsiella pneumoniae [14]) | MIC (Klebsiella pneumoniae [19]) | MIC (Salmonella enterica [20]) | MBC (Escherichia coli [25]) | MBC (Klebsiella pneumoniae [28]) | MBC (Klebsiella pneumoniae [31]) | MBC (Klebsiella pneumoniae [33])
1.56 µM: MIC (Klebsiella pneumoniae [11]) | MBC (Klebsiella pneumoniae [13]) | MIC (Klebsiella aerogenes) | MBC [17] | MIC (Klebsiella pneumoniae [18]) | MIC (Klebsiella pneumoniae [21])
25 µM: MIC (Enterococcus faecalis)
100 µM: MBC (Rhizopus arrhizus [7]) | MBC (Enterococcus faecium [15]) | MBC (Staphylococcus aureus [16])
12.5 µM: MBC (Enterococcus faecium [34])
100%: Activity (Lipopolysaccharide (LPS))
6.25 µM: MIC (Salmonella typhimurium [9]) | MIC (Staphylococcus aureus [30])
3.13 µM: MBC (Escherichia coli [2]) | MBC (Salmonella typhimurium [6]) | MBC (Acinetobacter baumannii) | MIC (Pseudomonas aeruginosa) | MIC (Salmonella typhimurium [22]) | MIC (Salmonella enterica [23]) | MBC (Klebsiella pneumoniae [24]) | MBC (Klebsiella oxytoca [29]) | MIC (Klebsiella oxytoca [32])
active: Activity (Klebsiella pneumoniae [12]) | Activity (Cell membrane [26]) | Activity (Cell membrane [27])
